Legend:
[1] = mouse, in vivo, po, 20 mg/kg
Experimental: (§1) Experimental objective: a single dose of test compounds was administered to ICR mice intragastrically, and the concentrations of the test compounds in plasma of the mice were measured to evaluate pharmacokinetic characteristics of the test compounds in the mice.
(§2) Experimental animal: male ICR mice, about 20-25 g, 6-8 weeks old, 3 mice/compound, purchased from Chengdu Dossy Experimental Animals Co., Ltd.
(§3) Experimental method: on the day of the experiment, three ICR mice were randomly grouped according to their body weight. The animals were fasted with water available for 12 to 14 hours one day before the administration, and were fed 4 hours after the administration.
(§4) Before and after the administration, 0.03 mL of blood was taken from the orbit of the animals under isoflurane anesthesia, and placed in an EDTAK2 centrifuge tube. Centrifugation was carried out at 5000 rpm at 4° C. for 10 min, and the plasma was collected.
(§5) Time points for sample collection comprise 0 (before the administration), 15 min, 30 min, 1 h, 2 h, 4 h, 6 h, 8 h and 24 h.
(§6) Before analysis and detection, all samples were stored at −80° C.

EZH2 = EZH2 (Homo sapiens (Human), UniProt Q15910); experiment: Test method for EZH2 enzyme activity; format: biochemical; conditions: H3K27(21-44) and [3H]-SAM
Procedure, shortened: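 EZH2 (3 nM final) preincubated 15 min with compound in Tris-HCl pH 9.0 buffer, then H3K27(21-44) peptide and [3H]-SAM added (mixture at 200 nM and 100 nM) for 60 min at room temperature. Reaction quenched with cold SAM; flashplate scintillation read, inhibition normalized to controls and IC50 fitted.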

SU-DHL-6 cells = experiment: SU-DHL-6 cell proliferation test; format: cell-based, human; conditions: incubated for 14 days
Experimental: SU-DHL-6 cells are human B-cell lymphoma cell lines purchased from ATCC and cultured under the following conditions: RPMI-1640+10% FBS+1% double antibody in a 37° C., 5% CO2 incubator. The cells were plated in a 12-well plate, with a cell concentration of 1×10^5 cells/mL. After the cells were plated, the compounds at different concentrations were added and cultured in a 37° C., 5% CO2 incubator. The cells were counted every 3-4 days (Countstar automated cell counter), centrifuged to remove the supernatant, re-diluted to 1×10^5 cells/mL and plated, and then the compounds at different concentrations were further added. After the mixture was incubated for 14 days and the cells were counted, the test was terminated, and the IC50 values were calculated by using the Origen9.2 software.

[2] = Pharmacokinetic experiment in mice (intravenous 5 mg/kg or intragastric 30 mg/kg); format: in vivo; conditions: for AUC: read-out: AUC; for C0: read-out: C0; for bioavailability: PO 30 mg/kg vs IV 5 mg/kg
Experimental: The administration was performed according to table 5.
The concentrations of the compounds in EDTA-K2 anticoagulant plasma were determined by the LC-MS/MS method. The linear range of the standard curve of the compounds is 2-2000 ng/mL. After subjected to precipitating proteins with acetonitrile, the samples were analyzed by LC-MS/MS. The standard curve was subjected to a regression calculation using the weighted least square method (W=1/X^2), and quantified by calculating the ratio of test compound peak area to internal standard peak area.
• (1) except to the blank sample, 400 μL of internal standard working solution (Verapamil internal standard concentration in precipitant acetonitrile is 10.0 ng/mL) was added to a 1.5 mL centrifuge tube containing 30 μL of standard curve samples and quality control samples; • 200 μL of internal standard working solution (Verapamil internal standard concentration in precipitant acetonitrile is 10.0 ng/mL) was added to a 1.5 mL centrifuge tube containing 15 μL of unknown samples; • and 400 μL of acetonitrile was added to the blank sample; • (2) the mixture was mixed evenly for about 1 min in a vortex mixer; • (3) centrifugation was carried out at 10000 rpm at 4C for 10 mi; • (4) 175 μL of the supernatant was transferred to a new 96-well polypropylene plate, and then the plate was sealed and placed in a 10° C. sample tray for injection.

[3] = Pharmacokinetic experiment in mice (single intragastric dose, 20 mg/kg); conditions: male, ICR, mouse, plasma, po
Experimental: as §1, §2, §3, §4, §5, §6

[4] = male, ICR, mouse, plasma, iv, 5 mg/kg, IV 5 mg/kg
[5] = male, ICR, mouse, plasma, po, 30 mg/kg, PO 30 mg/kg
[6] = male, ICR, mouse, plasma, po, 30 mg/kg

Sequence of EZH2 (Q15910 other isoform, or with tags, fused parts or gaps isoform Q15910-2): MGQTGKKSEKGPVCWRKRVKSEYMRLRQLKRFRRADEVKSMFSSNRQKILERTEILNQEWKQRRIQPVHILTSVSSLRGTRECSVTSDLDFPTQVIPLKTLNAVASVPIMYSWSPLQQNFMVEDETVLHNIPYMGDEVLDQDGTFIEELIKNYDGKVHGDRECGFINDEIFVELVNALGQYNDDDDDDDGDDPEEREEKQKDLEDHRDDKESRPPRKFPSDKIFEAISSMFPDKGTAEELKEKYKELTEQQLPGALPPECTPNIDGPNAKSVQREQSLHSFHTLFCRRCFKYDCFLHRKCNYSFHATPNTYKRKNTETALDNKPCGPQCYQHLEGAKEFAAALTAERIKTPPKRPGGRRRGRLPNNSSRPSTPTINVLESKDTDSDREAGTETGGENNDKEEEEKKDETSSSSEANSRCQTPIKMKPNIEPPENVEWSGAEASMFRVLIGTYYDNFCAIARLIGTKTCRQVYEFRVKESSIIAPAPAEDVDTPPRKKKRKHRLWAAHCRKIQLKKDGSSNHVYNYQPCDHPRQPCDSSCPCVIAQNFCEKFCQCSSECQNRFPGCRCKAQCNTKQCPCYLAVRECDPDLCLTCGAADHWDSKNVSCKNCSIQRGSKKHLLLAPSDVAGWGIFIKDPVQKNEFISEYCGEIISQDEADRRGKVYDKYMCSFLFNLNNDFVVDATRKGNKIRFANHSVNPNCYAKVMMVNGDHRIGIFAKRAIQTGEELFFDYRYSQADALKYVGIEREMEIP
Sequence of EZH2 (O75530 2-441 partner): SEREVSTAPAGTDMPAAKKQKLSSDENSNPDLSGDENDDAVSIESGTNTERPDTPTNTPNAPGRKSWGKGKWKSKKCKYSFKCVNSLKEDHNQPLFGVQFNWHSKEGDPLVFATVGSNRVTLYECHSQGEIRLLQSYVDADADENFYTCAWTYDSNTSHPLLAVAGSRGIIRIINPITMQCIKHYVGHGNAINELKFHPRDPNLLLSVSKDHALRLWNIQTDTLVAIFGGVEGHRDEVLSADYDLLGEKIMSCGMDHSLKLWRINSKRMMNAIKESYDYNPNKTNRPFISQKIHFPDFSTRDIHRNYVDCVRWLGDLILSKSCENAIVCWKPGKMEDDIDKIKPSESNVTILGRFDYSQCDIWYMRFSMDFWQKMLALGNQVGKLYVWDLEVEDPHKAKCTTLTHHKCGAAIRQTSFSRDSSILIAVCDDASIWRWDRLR
Sequence of EZH2 (Q15022 2-739 partner): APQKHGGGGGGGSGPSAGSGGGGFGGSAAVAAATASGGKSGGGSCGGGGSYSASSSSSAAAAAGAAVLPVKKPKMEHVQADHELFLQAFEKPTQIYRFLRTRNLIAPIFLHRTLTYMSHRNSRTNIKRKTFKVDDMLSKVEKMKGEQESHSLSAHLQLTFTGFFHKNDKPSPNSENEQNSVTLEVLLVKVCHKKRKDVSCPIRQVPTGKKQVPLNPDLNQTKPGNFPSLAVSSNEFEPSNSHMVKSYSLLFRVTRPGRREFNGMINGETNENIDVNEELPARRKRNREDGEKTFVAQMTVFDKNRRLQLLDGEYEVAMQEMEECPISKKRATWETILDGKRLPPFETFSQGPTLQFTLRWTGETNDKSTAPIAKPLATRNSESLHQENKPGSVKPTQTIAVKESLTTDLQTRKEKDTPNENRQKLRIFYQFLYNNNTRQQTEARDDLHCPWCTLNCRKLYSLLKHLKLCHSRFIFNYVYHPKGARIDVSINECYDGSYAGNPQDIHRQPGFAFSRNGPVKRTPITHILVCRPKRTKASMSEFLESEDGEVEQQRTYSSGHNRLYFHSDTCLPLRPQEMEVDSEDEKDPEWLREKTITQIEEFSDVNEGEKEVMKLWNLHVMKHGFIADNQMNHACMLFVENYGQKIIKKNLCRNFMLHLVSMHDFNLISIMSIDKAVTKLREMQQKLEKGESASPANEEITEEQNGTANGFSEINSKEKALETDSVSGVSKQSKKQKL
Sequence of EZH2 (Q09028 2-425 partner): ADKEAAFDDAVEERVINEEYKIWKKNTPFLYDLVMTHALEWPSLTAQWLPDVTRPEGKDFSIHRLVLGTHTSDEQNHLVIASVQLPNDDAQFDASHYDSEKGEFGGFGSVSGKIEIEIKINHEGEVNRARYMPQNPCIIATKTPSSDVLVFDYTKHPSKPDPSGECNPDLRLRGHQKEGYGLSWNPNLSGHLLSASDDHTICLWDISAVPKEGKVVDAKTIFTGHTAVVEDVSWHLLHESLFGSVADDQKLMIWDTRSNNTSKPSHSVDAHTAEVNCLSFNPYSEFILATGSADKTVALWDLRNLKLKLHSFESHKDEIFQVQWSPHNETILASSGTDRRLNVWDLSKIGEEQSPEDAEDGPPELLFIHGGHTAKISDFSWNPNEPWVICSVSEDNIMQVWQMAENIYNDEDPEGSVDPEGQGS
Sequence of EZH2 (Q6ZN18 whole entry partner): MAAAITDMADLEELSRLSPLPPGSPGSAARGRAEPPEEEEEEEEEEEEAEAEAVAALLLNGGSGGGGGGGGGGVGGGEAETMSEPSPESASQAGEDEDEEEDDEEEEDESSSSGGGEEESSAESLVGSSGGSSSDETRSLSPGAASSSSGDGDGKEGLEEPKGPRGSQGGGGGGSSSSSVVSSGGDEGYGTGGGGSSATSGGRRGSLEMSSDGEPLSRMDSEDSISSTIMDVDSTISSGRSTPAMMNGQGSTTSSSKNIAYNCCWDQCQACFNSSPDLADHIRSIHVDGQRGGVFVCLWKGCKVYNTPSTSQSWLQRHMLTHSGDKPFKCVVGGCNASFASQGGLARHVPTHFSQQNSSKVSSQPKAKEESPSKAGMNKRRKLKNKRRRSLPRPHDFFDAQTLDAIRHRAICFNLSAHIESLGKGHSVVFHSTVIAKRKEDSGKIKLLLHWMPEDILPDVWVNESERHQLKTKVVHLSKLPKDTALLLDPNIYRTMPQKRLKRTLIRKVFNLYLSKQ

CSc1cc(C)[nH]c(=O)c1CNC(=O)c1cc(Cl)c2c(c1C)OC(C)(C1CCN(CC3CC(F)(F)C3)CC1)O2 (single isomer, unassigned; isomer 1) [Compound 10, isomer 1, 7-chloro-2-(1-((3,3-difluorocyclobutyl)methyl)piperidin-4-yl)-2,4-dimethyl-N-((6-methyl-4-(methylthio)-2-oxo-1,2-dihydropyridin-3-yl)methyl)benzo[d][1,3]dioxole-5-carboxamide]
Conclusion on pharmacokinetics [1]: Conclusion: the compounds of the present disclosure, especially isomer 1 of compound 10 and isomer 1 of compound 34, have good pharmacokinetics with long half-life and short time to reach the highest concentration.
Curve area AUC [1]: 1097 h · ng · mL − 1
Half-life T1/2 [1]: 1.72 h
Plasma drug concentration Cmax [1]: 1238 ng/mL
Time to reach peak Tmax [1]: 0.25

[2H]C([2H])(NC(=O)c1cc(Cl)c2c(c1C)OC(C)(C1CCN(CC3CC3)CC1)O2)c1c(SC)cc(C)[nH]c1=O (centres unmarked) [Compound 27, 7-chloro-2-(1-(cyclopropylmethyl)piperidin-4-yl)-2,4-dimethyl-N-((6-methyl-4-(methylthio)-2-oxo-1,2-dihydropyridin-3-yl)methyl-d2)benzo[d][1,3]dioxole-5-carboxamide]
IC50 (EZH2): 0.52 nM
IC50 (SU-DHL-6 cells; Homo sapiens, SU-DHL-6, 336 h): 93.7 nM
half-life [2, 4]: 1.42 h
AUC [2, 4]: 839 ng·h/mL
C0 [2, 4]: 1970 ng/mL
half-life [2, 5]: 0.934 h
bioavailability [2, 6]: 52.7%
AUC [2, 5]: 2650 ng·h/mL
Cmax ([2]; male, ICR, mouse, plasma, po, 30 mg/kg, PO 30 mg/kg, read-out: Cmax): 865 ng/mL
Tmax ([2]; male, ICR, mouse, plasma, po, 30 mg/kg, PO 30 mg/kg, read-out: Tmax): 2 h

CSc1cc(C)[nH]c(=O)c1CNC(=O)c1cc(Cl)c2c(c1C)OC(C)([C@H]1CC[C@@H](N[C@H]3C[C@H](F)C3)CC1)O2 (single isomer, unassigned) [Compound 34, isomer 1, 7-chloro-2-(4-((trans-3-fluorocyclobutyl)amino)cyclohexyl)-2,4-dimethyl-N-((6-methyl-4-(methylthio)-2-oxo-1,2-dihydropyridin-3-yl)methyl)benzo[d][1,3]dioxole-5-carboxamide]
IC50 (EZH2): 0.57 nM
IC50 (SU-DHL-6 cells; Homo sapiens, SU-DHL-6, 336 h): 33 nM
AUC [3]: 1350 ng·h/mL
Cmax [3]: 598 ng/mL
half-life [3]: 3.37 h

CSc1cc(C)[nH]c(=O)c1CNC(=O)c1cc(Cl)c2c(c1C)OC(C)(C1CCN(CC3CC3(F)F)CC1)O2 (centres unmarked) [Compound 31, 7-chloro-2-(1-((2,2-difluorocyclopropyl)methyl)piperidin-4-yl)-2,4-dimethyl-N-((6-methyl-4-(methylthio)-2-oxo-1,2-dihydropyridin-3-yl)methyl)benzo[d][1,3]dioxole-5-carboxamide]
IC50 (EZH2): 0.52 nM
IC50 (SU-DHL-6 cells; Homo sapiens, SU-DHL-6, 336 h): 68 nM

[2H]C([2H])(NC(=O)c1cc(Cl)c2c(c1C)OC(C)([C@H]1CC[C@@H](NC3CC(F)(F)C3)CC1)O2)c1c(SC)cc(C)[nH]c1=O (single isomer, unassigned) [Compound 44, isomer 1, 7-chloro-2-(4-((3,3-difluorocyclobutyl)amino)cyclohexyl)-2,4-dimethyl-N-((6-methyl-4-(methylthio)-2-oxo-1,2-dihydropyridin-3-yl)methyl-d2)benzo[d][1,3]dioxole-5-carboxamide]
IC50 (EZH2): 0.48 nM
IC50 (SU-DHL-6 cells; Homo sapiens, SU-DHL-6, 336 h): 24 nM
T1/2 ([2]; ICR mice, IV 5 mg/kg, listed as Compound 44, Isomer 1): 0.427 h
Cmax ([2]; ICR mice, PO 30 mg/kg, listed as Compound 44, Isomer 1): 971 ng/mL
AUC [2, 4]: 574 ng·h/mL
C0 [2, 4]: 2340 ng/mL
half-life [2, 5]: 1.27 h
bioavailability [2, 6]: 44.3%
AUC [2, 5]: 1530 ng·h/mL

CSc1cc(C)[nH]c(=O)c1CNC(=O)c1cc(Cl)c2c(c1C)OC(C)([C@H]1CC[C@@H](N3CC[Si](C)(C)CC3)CC1)O2 (single isomer, unassigned) [Compound 49, isomer 2, 7-chloro-2-(4-(4,4-dimethyl-1,4-azasilinan-1-yl)cyclohexyl)-2,4-dimethyl-N-((6-methyl-4-(methylthio)-2-oxo-1,2-dihydropyridin-3-yl)methyl)benzo[d][1,3]dioxole-5-carboxamide]
IC50 (EZH2): 0.32 nM
IC50 (SU-DHL-6 cells; Homo sapiens, SU-DHL-6, 336 h): 38.9 nM

[2H]C([2H])(NC(=O)c1cc(Cl)c2c(c1C)OC(C)([C@H]1CC[C@@H](N3CC4COCC4C3)CC1)O2)c1c(SC)cc(C)[nH]c1=O (single isomer, unassigned) [Compound 60, isomer 1, 7-chloro-2,4-dimethyl-N-((6-methyl-4-(methylthio)-2-oxo-1,2-dihydropyridin-3-yl)methyl-d2)-2-(4-(tetrahydro-1H-furo[3,4-c]pyrrol-5(3H)-yl)cyclohexyl)benzo[d][1,3]dioxole-5-carboxamide]
IC50 (EZH2): 0.18 nM
IC50 (SU-DHL-6 cells): 58.6 nM

CSc1cc(C)[nH]c(=O)c1CNC(=O)c1cc(Cl)c2c(c1C)OC(C)([C@H]1CC[C@H](N[C@H]3C[C@@H](F)C3)CC1)O2 (single isomer, unassigned) [Compound 41, isomer 1, 7-chloro-2-(4-((cis-3-fluorocyclobutyl)amino)cyclohexyl)-2,4-dimethyl-N-((6-methyl-4-(methylthio)-2-oxo-1,2-dihydropyridin-3-yl)methyl)benzo[d][1,3]dioxole-5-carboxamide]
IC50 (EZH2): 0.52 nM
IC50 (SU-DHL-6 cells; Homo sapiens, SU-DHL-6, 336 h): 35.3 nM

CSc1cc(C)[nH]c(=O)c1CNC(=O)c1cc(Cl)c2c(c1C)OC(C)([C@H]1CC[C@@H](N[C@H]3C[C@H](F)C3)CC1)O2 (single isomer, unassigned) [Compound 34, isomer 2, 7-chloro-2-(4-((trans-3-fluorocyclobutyl)amino)cyclohexyl)-2,4-dimethyl-N-((6-methyl-4-(methylthio)-2-oxo-1,2-dihydropyridin-3-yl)methyl)benzo[d][1,3]dioxole-5-carboxamide]
IC50 (EZH2): 0.57 nM
IC50 (SU-DHL-6 cells): 27.1 nM

CSc1cc(C)[nH]c(=O)c1CNC(=O)c1cc(Cl)c2c(c1C)OC(C)([C@H]1CC[C@H](N[C@H]3C[C@@H](F)C3)CC1)O2 (single isomer, unassigned) [Compound 41, isomer 2, 7-chloro-2-(4-((cis-3-fluorocyclobutyl)amino)cyclohexyl)-2,4-dimethyl-N-((6-methyl-4-(methylthio)-2-oxo-1,2-dihydropyridin-3-yl)methyl)benzo[d][1,3]dioxole-5-carboxamide]
IC50 (EZH2): 0.44 nM
IC50 (SU-DHL-6 cells): 22 nM
